Test systems include SR leukemia; MOLT-4 leukemia; MDA-MB-435; HOP-62 NSCLC; SK-MEL-2 melanoma; OVCAR-5 ovarian; A498 renal; HT29 colon; HCT-15 colon; HCT-116 colon.
Common to all, as to assay: DTP human tumour cell line panel, 48 h

SMILES strings stand for the structures. Values joined by “and” are separate entries in the source; they are usually repeats but may differ in a detail not shown here. Identical values can stand only once.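 The compound was tested at five concentrations on cells cultured in 96-well plates, with a 48-hour exposure period. GI50 = concentration required for 50% inhibition of growth. TGI is the concentration that stops growth completely.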

On to `Cc1ccc(/C=C2\Cc3c(C)cc(C)cc3C2=O)c(C(=O)O)c1`, for which the TGI in the test with SR leukemia is 68.7 µM; in the test on MOLT-4 leukemia, over 100 µM; in the test with MDA-MB-435 it was 88.1 µM; in the test with HOP-62 NSCLC, over 100 µM; in the test with SK-MEL-2 melanoma, 83.6 µM; in the test on OVCAR-5 ovarian it was over 100 µM. The TGI was 84.1 µM in the test with A498 renal, over 100 µM in the test on HT29 colon, over 100 µM with HCT-15 colon and over 100 µM in the test with HCT-116 colon.
`C#CCN(Cc1ccc2nc(OC)c(OC)nc2c1)c1cc(OC)c(OC)c(OC)c1`: the TGI in the test on SR leukemia was over 61.7 µM; with MOLT-4 leukemia, 72.6 µM; in the test on MDA-MB-435, 74.7 µM; in the test on HOP-62 NSCLC it was over 67.9 µM; with SK-MEL-2 melanoma it was over 87.8 µM; in the test with OVCAR-5 ovarian, over 85.8 µM. The TGI in the test with A498 renal is over 84.5 µM; with HT29 colon it was 72 µM; in the test on HCT-15 colon it was over 87.5 µM; in the test with HCT-116 colon, over 68.8 µM.
For `CC(C)(C)c1cc(C(=O)/C=C/c2ccc3c(c2)OCO3)cc(C(C)(C)C)c1O`, the TGI is 10 µM with SR leukemia; over 26.6 µM with MOLT-4 leukemia; 7.04 µM in the test with MDA-MB-435; over 100 µM with HOP-62 NSCLC; 10.4 µM with SK-MEL-2 melanoma; over 76.9 µM with OVCAR-5 ovarian. Also, the TGI with A498 renal was over 56.4 µM; with HT29 colon, 28 µM; with HCT-15 colon, 33.9 µM; in the test with HCT-116 colon it was 24.5 µM.
For the compound `NC(=O)N/N=C1\CC2C3CC4C2C4C13` (centres undefined), the TGI in the test with SR leukemia, with MOLT-4 leukemia, in the test on MDA-MB-435, with HOP-62 NSCLC, in the test on SK-MEL-2 melanoma and in the test with OVCAR-5 ovarian was over 100 µM each time. The TGI in the test with A498 renal, with HT29 colon, in the test with HCT-15 colon and with HCT-116 colon was over 100 µM each time.
As for `CC(=O)c1ccc2c(c1)CC1(C2)Cc2ccccc2C1=O` (centres undefined), the TGI with SR leukemia, in the test with MOLT-4 leukemia, in the test with MDA-MB-435, with HOP-62 NSCLC, with SK-MEL-2 melanoma and in the test with OVCAR-5 ovarian was over 100 µM in each case. In addition, the total growth inhibition concentration (TGI) in the test with A498 renal was over 100 µM; with HT29 colon, 43.8 µM; with HCT-15 colon it was over 100 µM; in the test on HCT-116 colon, over 100 µM.
In the case of `O=C1c2ccccc2NC(=S)[C@@H]2CCCN12`, the TGI in the test on SR leukemia, in the test on MOLT-4 leukemia, in the test on MDA-MB-435, in the test on HOP-62 NSCLC, in the test with SK-MEL-2 melanoma and in the test with OVCAR-5 ovarian was over 100 µM each time. For the same compound, the TGI in the test with A498 renal, in the test on HT29 colon, with HCT-15 colon and with HCT-116 colon was over 100 µM throughout.
With `CC1(C)[C@H]2CC[C@@]13C(=O)N1C(=O)O[C@@H]([C@H]1Cl)C(Cl)(COCc1ccccc1)C(=O)OCCO[C@H]3C2` (some centres undefined), the TGI was over 100 µM with SR leukemia; 76.9 µM in the test with MOLT-4 leukemia; over 100 µM with MDA-MB-435; over 100 µM with HOP-62 NSCLC; over 100 µM in the test with SK-MEL-2 melanoma; over 100 µM in the test on OVCAR-5 ovarian. Also, the TGI in the test on A498 renal, in the test with HT29 colon, in the test with HCT-15 colon and in the test with HCT-116 colon was over 100 µM each time.
Regarding `O=[N+]([O-])c1ccc2c(c1)C1=NN(c3ccccc3)C(c3ccccc3Br)C1CCC2` (centres undefined), the TGI in the test on SR leukemia, in the test on MOLT-4 leukemia, with MDA-MB-435, in the test on HOP-62 NSCLC, with SK-MEL-2 melanoma and with OVCAR-5 ovarian was over 50 µM in each case. Moreover, the TGI in the test on A498 renal, with HT29 colon, in the test on HCT-15 colon and with HCT-116 colon was over 50 µM each time.
On to `CCOC(=O)c1cn2c(n1)sc1cc(Cl)cc(Cl)c12`, for which the TGI in the test with SR leukemia, in the test with MOLT-4 leukemia, in the test on MDA-MB-435, with HOP-62 NSCLC, in the test on SK-MEL-2 melanoma and in the test with OVCAR-5 ovarian was over 100 µM in each case. The TGI with A498 renal, in the test on HT29 colon, in the test with HCT-15 colon and with HCT-116 colon was over 100 µM throughout.
Consider `C=C(CN(C)C)C(=O)c1ccccc1[N+](=O)[O-]`, for which the GI50 in the test with SR leukemia is 1.65 µM; in the test on MOLT-4 leukemia it was 4.01 µM and 0.606 µM; in the test on MDA-MB-435 it was 3.86 µM; with HOP-62 NSCLC, 17.7 µM; in the test on SK-MEL-2 melanoma it was 17.4 µM; in the test with OVCAR-5 ovarian, 16.3 µM. In addition, the GI50 in the test on HT29 colon is 3.31 µM; in the test with HCT-15 colon it was 3.34 µM; in the test on HCT-116 colon, 7.18 µM. In addition, the TGI in the test on SR leukemia is > 33.3 µM and 5.74 µM; with MOLT-4 leukemia it was 26.7 µM and 5.83 µM; with MDA-MB-435, 29.7 µM and 15.9 µM; with HOP-62 NSCLC, > 100 µM and 36.6 µM; with SK-MEL-2 melanoma, 33.2 µM and 35 µM; in the test with OVCAR-5 ovarian, 29.4 µM and 31.1 µM. Besides, the total growth inhibition concentration (TGI) in the test with A498 renal was over 92 µM; with HT29 colon, 39.1 µM and 16.1 µM; in the test on HCT-15 colon, 27 µM and 12.6 µM; with HCT-116 colon, 31.6 µM and 38.3 µM.

Usually TGI stands for the concentration giving total growth inhibition. Higher therefore signals lower sensitivity of the cells. In general, GI50 refers to the concentration at which growth is held to half of that of the control.

The values above are taken from PubChem BioAssay (NCI).
